Laboratory results reported in patent publication US5843941A, “Ras farnesyl transferase inhibitors” (Genentech, Inc., priority 1994, dated 1998).
Like-named read-outs stand apart in the source and are kept apart here.

Biological target: CAAX farnesyltransferase (Rattus norvegicus, UniProt Q02293+Q04631)
Assay: In vitro inhibition of CAAX farnesyltransferase
Assay type: biochemical
Parameters: purified to homogeneity from rat brain homogenates; from tissue; host or cells: rat brain; alternatively recombinant enzyme from a baculovirus expression system
Conditions: Table D
Protocol: All compounds were tested for in vitro inhibition of CAAX protein farnesyltransferase. […] Alternatively, recombinant CAAX protein farnesyltransferase was also used in this assay. […] Seventy-two hrs after infection, the cells were harvested and disrupted and the enzyme isolated by chromatography on Q-Sepharose.
After incubation for 30 min at 37° C., the amount of [3H]famesyl group transferred to p21H-ras was measured by precipitation with SDS/trichloroacetic acid, filtration onto nitrocellulose, and scintillation counting.
Structures of the compounds tested are reproduced below. Compound numbers also refer to example numbers above.

[1] = diastereomer A, read-out: EC50 (μM) "A"
[2] = diastereomer B, read-out: EC50 (μM) "B"

Chain of CAAX farnesyltransferase (Q02293 whole entry, one chain of several): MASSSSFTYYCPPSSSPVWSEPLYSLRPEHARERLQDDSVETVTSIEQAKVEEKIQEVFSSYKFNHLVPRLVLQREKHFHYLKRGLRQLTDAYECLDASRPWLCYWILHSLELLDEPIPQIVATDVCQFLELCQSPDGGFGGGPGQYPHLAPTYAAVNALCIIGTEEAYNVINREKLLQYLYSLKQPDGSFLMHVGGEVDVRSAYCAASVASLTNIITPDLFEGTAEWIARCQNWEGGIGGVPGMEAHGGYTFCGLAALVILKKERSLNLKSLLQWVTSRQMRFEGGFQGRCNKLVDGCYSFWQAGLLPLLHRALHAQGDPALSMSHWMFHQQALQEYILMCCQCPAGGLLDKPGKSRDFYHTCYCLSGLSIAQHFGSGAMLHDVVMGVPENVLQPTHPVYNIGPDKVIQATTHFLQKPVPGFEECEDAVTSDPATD

Row | SMILES | EC50 [1] [µM] | EC50 [2] [µM] | EC50 (EC50 (μM) "A", diastereomer A) [µM] | EC50 (EC50 (μM) "B", diastereomer B) [µM]
1 | CSCC[C@H](NC(=O)CN1C(=O)C(N(C)C(=O)[C@@H](N)CS)N=C(c2ccccc2)c2ccccc21)C(N)=O (stereo partly drawn) [compound 33, N-[[3-[(2-amino-3-mercapto-1-oxopropyl)methylamino]-2,3-dihydro-2-oxo-5phenyl-1H-1,4-benzodiazepin-1-yl]acetyl]-L-methionine amide] | 2.2 | 0.019 | – | –
2 | C[C@H](NC(=O)CN1C(=O)C(N(C)C(=O)[C@@H](N)CS)N=C(c2ccccc2)c2ccccc21)C(=O)O (stereo partly drawn) [compound 35, N-[[3-[(2-amino-3-mercapto-1-oxopropyl)methylamino]-2,3dihydro-2-oxo-5-phenyl-1H-1,4-benzodiazepin-1-yl]acetyl]-L-alanine] | > 10 | 0.022 | – | –
3 | CN(C(=O)[C@@H](N)CS)C1N=C(c2ccccc2)c2ccccc2N(CC(=O)N2CCC[C@H]2C(=O)O)C1=O (stereo partly drawn) [compound 36, N-[[3-[(2-amino-3-mercapto-1-oxopropyl)methylamino]-2,3-dihydro-2-oxo-5-phenyl-1H-1,4-benzodiazepin-1-yl]acetyl]-L-proline] | > 10 | 0.048 | – | –
4 | CCOC(=O)[C@H](CCSC)NC(=O)CN1C(=O)C(N(C)C(=O)[C@@H](N)CS)N=C(c2ccccc2)c2ccccc21 (stereo partly drawn) [compound 39] | 8 | 0.11 | – | –
5 | CSCC[C@H](NC(=O)CN1C(=O)C(N(C)C(=O)[C@@H](N)CS)N=C(c2ccccc2)c2ccccc21)C(=O)OC1CCCCC1 (stereo partly drawn) [compound 41] | 4.2 | 0.074 | – | –
6 | CCN[C@@H](CS)C(=O)N(C)C1N=C(c2ccccc2)c2ccccc2N(CC(=O)N[C@@H](CCSC)C(=O)O)C1=O (stereo partly drawn) [compound 42, N-[[3-[(2-ethylamino-3-mercapto-1-oxopropyl)methylamino]-2,3-dihydro-2-oxo-5-phenyl-1H-1,4-benzodiazepin-1-yl]acetyl]-L-methionine] | 0.58 | 0.018 | – | –
7 | CN(C(=O)[C@@H](N)CS)C1N=C(c2ccccc2)c2ccccc2N(CC(=O)N[C@@H](CS)C(=O)O)C1=O (stereo partly drawn) [compound 44, N-[[3-[(2-Amino-3-mercapto-1-oxopropyl)methylamino]-2,3-dihydro-2-oxo-5phenyl-1H-1,4-benzodiazepin-1-yl]acetyl]-L-cysteine] | 3 | 0.0045 | – | –
8 | CSCC[C@H](NC(=O)CN1C(=O)C(N(C)C(=O)[C@@H](N)CO)N=C(c2ccccc2)c2ccccc21)C(=O)O (stereo partly drawn) [compound 45, N-[[3-[(2-amino-3-hydroxy-1-oxopropyl)methylamino]-2,3-dihydro-2-oxo-5-phenyl-1H-1,4-benzodiazepin-1-yl]acetyl]-L-methionine] | > 10 | > 10 | – | –
9 | CSCC[C@H](NC(=O)CN1C(=O)C(N(C)C(=O)[C@@H](N)CS)N=C(c2ccccc2)c2ccccc21)c1nnn[nH]1 (stereo partly drawn) [compound 47, N-[[3-[(2-amino-3-mercapto-1-oxopropyl)methylamino]-2,3-dihydro-2-oxo-5-phenyl-1H-1,4-benzodiazepin-1-yl]acetyl]-L-methionine tetrazole] | – | – | 0.044 | 0.0046
10 | CSCC[C@H](NC(=O)CCN1C(=O)C(N(C)C(=O)[C@@H](N)CS)N=C(c2ccccc2)c2ccccc21)C(=O)O (stereo partly drawn) [compound 48] | 2.5 | 0.004 | – | –
11 | CSCC[C@](C)(NC(=O)CN1C(=O)C(N(C)C(=O)[C@@H](N)CS)N=C(c2ccccc2)c2ccccc21)C(=O)O (stereo partly drawn) [compound 49, N-[[3-[(2-amino-3-mercapto-1-oxopropyl)methylamino]-2,3-dihydro-2-oxo-5-phenyl-1H-1,4-benzodiazepin-1-yl]acetyl]-(α-methyl)-methionine] | 0.74 | 0.006 | – | –
12 | CC(C)[C@H](NC(=O)CN1C(=O)C(N(C)C(=O)[C@@H](N)CS)N=C(c2ccccc2)c2ccccc21)C(=O)O (stereo partly drawn) [compound 50, N-[[3-[(2-amino-3-mercapto-1-oxopropyl)methylamino]-2,3-dihydro-2-oxo-5-phenyl-1H-1,4benzodiazepin-1-yl]acetyl]-L-valine] | > 3 | 0.0008 | – | –
